In patent publication EP4324461A1, “(E)-N-CINAMOYLAMINOALKANOLES WITH MELANOGENESIS INHIBITORY ACTIVITY” (UNIWERSYTET JAGIELLONSKI, priority 2022, dated 2024):

Tests used:
Assay type in all cases: cell-based
Keratinocytes (HaCaT) = assay: Safety, MTT test in keratinocytes; conditions: 48 hours
Procedure: (§1) In order to test the safety of the compounds, both normal human cells were used: keratinocytes (HaCaT), fibroblasts (BJ), primary melanocytes that occur in the skin, as well as human cancer cells: the hepatocarcinoma line HepG2 and the neuroblastoma line SH-SY5Y, which are considered a model for the assessment of hepatocytotoxicity and neurocytotoxicity. The concentrations of the tested compounds in the range of 250-100 µM were used in the studies. The cell lines used in the research were purchased from the American Type Culture Collection (ATCC) and were cultured in media recommended by the manufacturer with the addition of FBS and antibiotics in an incubator ensuring appropriate culture conditions, i.e. humidity, temperature and CO2 concentration. Cells were seeded into multiwell plates and incubated with the test compounds for 48 hours. After this time, MTT and LDH tests were performed to assess cell viability. The MTT test is based on the ability to transform the substrate: [3-(4,5-dimethyl-2-thiazolyl)-2,5-diphenyl-2H-tetrazolium bromide into a colored product only by living cells. The absorbance at 570 nm, which corresponds to the absorption maximum for the product, is directly proportional to cell viability. The LDH test is based on testing the activity of the enzyme lactate dehydrogenase in the culture medium, which is released from cells as a result of damage to the cell membrane, e.g. as a result of cell death. Triton X-100 was used as a positive control in the test. The determination is colorimetric, the substrate is transformed by the released enzyme into a colored product, an increase in absorbance indicates a larger amount of the released enzyme, and thus confirms greater damage to cell membranes. Tables 7 and 8 present the results obtained, which correspond to the viability of cells incubated with the compounds in relation to the viability of cells constituting a control sample, i.e. incubated with the solvent (DMSO) at the same concentration as in the case of the groups tested in the MTT test or in relation to the results obtained for the Triton X-100 positive control in the LDH test. They indicate that the compounds are safe at the concentrations tested. Table 7. Viability of tested normal human cell lines: keratinocytes (HaCaT), fibroblasts (BJ) and primary melanocytes after incubation with the tested compounds - determination in the MTT test (% of solvent control ± SD) and LDH (percentage of positive control - Triton X-100.

Fibroblasts (BJ) = assay: Safety, MTT test in fibroblasts; conditions: 48 hours
Procedure: as §1

Primary melanocytes = assay: Safety, LDH test in primary melanocytes; conditions: 48 hours, positive control Triton X-100
Procedure: as §1

[1] = tested on: reconstructed human epidermis containing melanocytes MelanoDerm™ MEL-300-B; assay: Melanogenesis inhibition in reconstructed human epidermis containing melanocytes (MelanoDerm); conditions: 1.0% in 50% PEG (10 µL), 14 days
Procedure: (§2) The research was carried out on reconstructed human epidermis containing melanocytes MelanoDerm™ MEL-300-B from MatTek (Bratislava, Slovakia). The ratio of keratinocytes to melanocytes in the epidermis used is 10:1. Only medium purchased from the same manufacturer (EPI-100-NMM-113) was used to culture the epidermis during the experiments. Once the epidermis was obtained, it was transferred to 12-well plates containing 5 mL of medium/well. Plates were used to enable proper contact of the lower parts of the inserts with the substrate (so-called hanging-top plate). Solutions of the compounds were prepared immediately before their application. The solutions were applied to the inserts using a positive displacement pipette and then distributed using a sterile glass bulb headed Pasteur pipette. The application was repeated every 48 hours, a total of 7 applications were performed. Before the next application, each insert was rinsed with sterile DPBS and dried with a sterile cotton buds. The application was also accompanied by a change of the medium. […] The epidermis was cultured in an incubator ensuring appropriate humidity, temperature (37 °C) and CO2 concentration (5%).
The experiment was conducted for 14 days. After this time, the inserts were rinsed with DPBS and dried with a cotton swab. For the selected pool of inserts, tissue viability was assessed using the MTT (Thiazolyl Blue Tetrazolium bromide) test, the remaining ones were used to determine the amount of melanin. To assess viability, the inserts were transferred to 24-well plate containing 0.3 mL of DMEM medium with 1 mg/mL MTT and incubated for 3 hours in an incubator. The epidermis was then placed in 2 mL of isopropanol and the resulting formazan was extracted for 2 hours at room temperature. The absorbance of the samples was measured at 570 nm in a microplate reader and correlated with the absorbance of the control by the formula: % Viability = [OD (570 nm) for test compound/OD (570 nm) for control] × 100. To determine the amount of melanin, the inserts were incubated in 5% sodium bicarbonate for 30 min, then dried and placed in 0.5 mL of Solvable™ reagent, which caused complete lysis of the epidermis. After heating at 95 °C, the absorbance of the samples was measured at 405 nm in a microplate reader. On this basis, the reduction in the amount of melanin was calculated in relation to the control sample. The absorbance results were also correlated with a standard curve for synthetic melanin. […] Table 5. Viability and melanin content in the MelanoDerm epidermis after application of the tested samples, calculated on the basis of absorbance measurements.
as §2, with “Only media” for “Only medium”, “cotton bud.” for “cotton buds.”
The experiment was conducted for 14 days. After this time, the inserts were rinsed with DPBS and dried with a cotton bud. […]

[2] = tested on: Chinese hamster ovary cell line (CHO-K1); assay: Genotoxicity in the micronucleus test in CHO-K1 cells

In the case of `O=C(/C=C/c1ccccc1)NCCCCCO` [Compound A-133, (2E)-N-(5-hydroxypentyl)-3-phenylprop-2-enamide], the “Keratinocytes (HaCaT) MTT” value (Keratinocytes (HaCaT); 100 µM) is reported as 101.35±2.17 % of solvent control, the “Keratinocytes (HaCaT) MTT” value (Keratinocytes (HaCaT); 150 µM) is reported as 101.40±2.08 % of solvent control and the “Keratinocytes (HaCaT) MTT” value (Keratinocytes (HaCaT); 200 µM) is reported as 101.51±2.49 % of solvent control. The “Keratinocytes (HaCaT) MTT” value (Keratinocytes (HaCaT); 250 µM) was 95.53±2.80 % of solvent control, the “Fibroblasts (BJ) MTT” value (Fibroblasts (BJ); 100 µM) was 99.41±5.96 % of solvent control and the “Fibroblasts (BJ) MTT” value (Fibroblasts (BJ); 150 µM) was 91.68±3.64 % of solvent control. The “Fibroblasts (BJ) MTT” value (Fibroblasts (BJ); 200 µM) was 87.76±2.71 % of solvent control, the “Fibroblasts (BJ) MTT” value (Fibroblasts (BJ); 250 µM) was 82.50±3.99 % of solvent control and the “Primary melanocytes LDH” value (Primary melanocytes; 100 µM) was 4.68 percentage of positive control. The “Primary melanocytes LDH” value (Primary melanocytes; 150 µM) was 7.59 percentage of positive control, the “Primary melanocytes LDH” value (Primary melanocytes; 200 µM) was 16.71 percentage of positive control and the “Primary melanocytes LDH” value (Primary melanocytes; 250 µM) was 19.45 percentage of positive control. The “Melanin content [% control, mean ± SD]” value ([1]; 7 applications) was 98.62±9.47 % control, the “Viability [% control, mean ± SD]” value ([1]; MTT) was 101.22±6.52 % control and the “DB (dicentric bridges in 1000 binucleate cells)” value (shortened to “DB”) ([2]; 100 µM) was 3.8 ± 2.8. The “MN (number of micronuclei in 1000 binucleate cells)” value (from here on “MN”) ([2]; 100 µM) was 7.8 ± 2.9, the “NB (nuclear buds in 1000 binucleate cells)” value (“NB” for short) ([2]; 100 µM) was 6.3 ± 3.7 and the “NDI (nuclear division index)” value ([2]; 100 µM) was 1.64. The “DB” value ([2]; 150 µM) was 3.7 ± 2.3, the “MN” value ([2]; 150 µM) was 6.0 ± 1.9 and the “NB” value ([2]; 150 µM) was 4.5 ± 3.3. For the same compound, the “NDI (nuclear division index)” value ([2]; 150 µM) was 1.65, the “DB” value ([2]; 200 µM) was 3.3 ± 1.4 and the “MN” value ([2]; 200 µM) was 6.8 ± 3.2. For the same compound, the “NB” value ([2]; 200 µM) was 4.7 ± 1.8 and the “NDI (nuclear division index)” value ([2]; 200 µM) was 1.66.
